Results published in ChEMBL document CHEMBL1201862, “PubChem BioAssay data set” (2004).
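Protocol summary: plate cells (96-well), add compound at 5 concentrations, incubate 48 h, interpolate endpoints linearly. GI50 is the concentration that inhibits growth by half.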 Active and inactive are the calls of the source. Rule as the data show it: active = GI50 up to about 1.1 µM and inactive = higher.

Key:
Assay in all cases: NCI-60 cell line screen, 48 h
NCI-H226 = test system: NCI-H226
OVCAR-3 = test system: OVCAR-3
HCT-15 = test system: HCT-15
SK-MEL-5 = test system: SK-MEL-5
SW-620 = test system: SW-620
SNB-78 = test system: SNB-78
RXF 393 = test system: RXF 393
PC-3 = test system: PC-3
MOLT-4 = test system: MOLT-4
SK-MEL-28 = test system: SK-MEL-28
DU-145 = test system: DU-145
CAKI-1 = test system: CAKI-1
HOP-92 = test system: HOP-92
NCI-H522 = test system: NCI-H522
SNB-19 = test system: SNB-19
SN12C = test system: SN12C
HOP-62 = test system: HOP-62
HCT-116 = test system: HCT-116
HCC 2998 = test system: HCC 2998
KM12 = test system: KM12

Row | Compound | GI50 (NCI-H226) | GI50 (OVCAR-3) | GI50 (HCT-15) [µM] | GI50 (SK-MEL-5) | GI50 (SW-620) | GI50 (SNB-78) | GI50 (RXF 393) | GI50 (PC-3) | GI50 (MOLT-4) | GI50 (SK-MEL-28) | GI50 (DU-145) | GI50 (CAKI-1) | GI50 (HOP-92) | GI50 (NCI-H522) | GI50 (SNB-19) | GI50 (SN12C) | GI50 (HOP-62) | GI50 (HCT-116) | GI50 (HCC 2998) | GI50 (KM12)
1 | CNC(=O)/C(=C/c1ccc(OC)cc1)c1cc(OC)c(OC)c(OC)c1 | 10.3 µM (inactive) | 0.641 µM (active) | 0.743 | 0.593 µM (active) | 0.802 µM (active) | 4.94 µM (inactive) | 1.99 µM (inactive) | 1.03 µM (active) | 2.33 µM (inactive) | 2.77 µM (inactive) | 2.74 µM (inactive) | 2.47 µM (inactive) | 13.9 µM (inactive) | 0.735 µM (active) | 4.58 µM (inactive) | 5.2 µM (inactive) | 2.27 µM (inactive) | 1.55 µM (inactive) | 2.45 µM (inactive) | 0.598 µM (active)
2 | COCC(=O)OC1CCn2c1nc1c2C(=O)C(C)=C(NC(C)=O)C1=O (stereo not drawn) | 11.1 µM (inactive) | 1.66 µM (inactive) | 14.4 | 13.5 µM (inactive) | 7.4 µM (inactive) | 1.81 µM (inactive) | 3.41 µM (inactive) | 2.27 µM (inactive) | 1.14 µM (inactive) | 15.1 µM (inactive) | 15.3 µM (inactive) | 16.2 µM (inactive) | 1.98 µM (inactive) | 4.57 µM (inactive) | 19.6 µM (inactive) | 7.26 µM (inactive) | 21.5 µM (inactive) | 3.05 µM (inactive) | 13 µM (inactive) | 15.7 µM (inactive)
3 | COc1ccc(O)cc1C(O)c1ccccc1 (stereo not drawn) | > 100 µM (inactive) | > 100 µM (inactive) | > 100 | > 100 µM (inactive) | > 100 µM (inactive) | > 100 µM (inactive) | > 100 µM (inactive) |  | > 100 µM (inactive) | > 100 µM (inactive) |  | > 100 µM (inactive) | > 100 µM (inactive) | > 100 µM (inactive) | > 100 µM (inactive) | > 100 µM (inactive) | > 100 µM (inactive) | > 100 µM (inactive) | > 100 µM (inactive) | > 100 µM (inactive)
